EC50, IC50 and outcome data for 71 compounds are collected here from PubChem BioAssay AID179 (DTP/NCI, 2004).

A word on the EC50: it is the midpoint of the concentration-response curve. A word on the IC50: it is the concentration needed to halve the response being measured.

Values joined by “and” are separate entries in the source; they are usually repeats but may differ in a detail not shown here. Identical values can stand only once. Active and inactive are the calls of the source.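 How the source made its calls: active means compounds giving half or more protection of infected cells from virus-caused growth loss, again on retest; inactive means the rest.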 Where a SMILES comes first, the peptide text is derived from it. Bridges are numbered along the chain shown (N, C = ends). Roman numbers before positions name the chains, in order. The star is where a group is joined. Myristoyl = CCCCCCCCCCCCCC(=O)*; Bz = O=C(c1ccccc1)* Bounds are passed on as bounds.

In the assay the test system is CEM cells HIV-1 protection, formazan growth assay. Nature of the assay: NCI AIDS Antiviral Assay. The settings on record: for IC50: measured here: growth of uninfected CEM cells. The essentials: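 Category rules: moderately active means at least 50% protection on retest, and confirmed active means 100% protection reproducibly. The underlying data came from a formazan growth assay in HIV-1-infected CEM cells.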

Regarding `O=c1[nH]c(=O)n(C2OC(CO)C(O)C2O)cc1OCc1ccccc1` (stereo unspecified), the EC50 was above 708 µM and the IC50 was above 708 µM.
As for `O=c1c2c(c1=O)-c1ccccc1CN2`, the EC50 is above 200 µM and the IC50 was above 200 µM.
As to `Nc1ncnc2nc(CO)[nH]c12`, the EC50 was above 158 µM and the IC50 is above 158 µM.
On to `Cn1c(=O)c2c(no[n+]2[O-])c2ccccc21`, for which the outcome was inactive.
As to `COc1c(C(=O)c2ccc([N+](=O)[O-])cc2)cc(C(C)(C)C)cc1C(C)(C)C`, the result was inactive.
Regarding `CCCCCCC(CC)(C(=O)O)C(=O)O`, the EC50 is above 437 µM and the IC50 is above 437 µM.
With `CSC(SC)=C(C#N)C(=O)Nc1cccc(Cl)c1`, the EC50 is above 200 µM and the IC50 is 30.2 µM.
Regarding `COc1cc(Nc2nc3cc(C)ccc3nc2-c2ccccc2)cc(OC)c1OC`, the EC50 was above 200 µM and the IC50 is 34.7 µM.
The matching figures for `C=C1CC(Cn2ccc(=O)[nH]c2=O)(c2ccc(-c3ccccc3)cc2)OC1=O` (stereo unspecified): above 20 µM and 0.479 µM.
As for `O=S1(=O)C(c2cccc(C(F)(F)F)c2)=C(O)c2cc3ccccc3nc21`, the result was inactive.
As for `Nc1ccc(SSc2ccc(N)cc2)cc1`, the EC50 was above 200 µM; the IC50 is 25.1 µM and 29.5 µM.
`Nc1nc2c(c(-c3cccc(Cl)c3)n1)COC/C2=C\c1cccc(Cl)c1`: the EC50 is above 200 µM and the IC50 is above 200 µM.
Regarding `CC(=O)OC1C[C@@]2(C)C(CC[C@@H]2C(C)=O)[C@@H]2CC=C3C[C@@H](O)CC[C@]3(C)C12` (stereo partly specified), the outcome was inactive.
For `COc1ccccc1/C=C1\SC(=S)NC1=O`, the EC50 was above 200 µM and the IC50 is 107 µM.
As to `O=C1c2c(O)ccc(O)c2C(=O)c2c(NCCNC(=O)C(O)C(O)C(O)C(O)CO)ccc(NCCNC(=O)C(O)C(O)C(O)C(O)CO)c21` (stereo unspecified), the EC50 was above 100 µM and the half-maximal inhibitory concentration (IC50) worked out at 0.0316 µM.
The matching figures for `COC(=O)[n+]1cc2c3cccc[n+]3c(N(C)C)n2c2ccccc21`: above 200 µM and 16.6 µM.
The matching figures for `CSc1c(C#N)c(N)n(-c2ccc(Cl)cc2)c(=O)c1C#N`: 67.6 µM and 72.4 µM.
`Cn1c2ccccc2c2c3c(ccc21)C(=O)N(c1ccccc1)C3=O`: the EC50 is above 93.3 µM and the IC50 is 60.3 µM.
The matching figures for `O=c1[nH]c2ncccc2c(=O)n1OS(=O)(=O)c1ccccc1`: above 200 µM and 135 µM.
`CC1(C)CCc2cc3c(cc2O1)OCC1c2cc4c(cc2OC31)OCO4` (stereo unspecified): the result was inactive.
`OCCN(CCO)CCn1cnc2c(NCc3ccccc3)ncnc21`: the EC50 was above 200 µM and the IC50 was above 200 µM.
Take `OC(Cc1ccc2ccccc2n1)(C(F)(F)F)C(F)(F)F`: the EC50 is above 200 µM and the IC50 was above 200 µM.
On to `NCCCCN(CCCN)C(=O)OCc1ccccc1`, for which the EC50 is above 200 µM and the IC50 is above 200 µM.
For `COc1ccc(N=C(Nc2ccc(OC)cc2)C(=Nc2ccc(OC)cc2)Nc2ccc(OC)cc2)cc1`, the EC50 was above 200 µM and the half-inhibitory concentration (IC50) is 28.2 µM.
The matching figures for `CC(C)(N=NC(C)(C)C(=N)N)C(=N)N`: above 200 µM and above 200 µM.
Regarding `[N-]=[N+]=Nc1cc(=O)n(-c2ccccc2)c(=O)n1-c1ccccc1`, the EC50 is above 200 µM and the IC50 was above 200 µM.
Consider `COc1ccc(C[C@H]2COC(=O)[C@@H]2Cc2ccc3c(c2)OCO3)cc1OC`, for which the EC50 is above 200 µM and the IC50 was 19.1 µM.
As to `C[C@@H]1C(N2CCCC2)=CC(=O)OC1c1ccccc1` (stereo partly specified), the EC50 was above 200 µM and the IC50 was above 200 µM.
In the case of `NC(=S)N/N=C1\C(=O)N(CCc2ccccc2)C(=O)C1C(=O)NCCc1ccccc1` (stereo unspecified), the EC50 is above 81.3 µM and the IC50 is 70.8 µM.
The matching figures for `COc1ccc(/C=C2\CCCc3ccccc3C2=O)cc1`: above 200 µM and 0.145 µM.
The matching figures for `Oc1ccccc1/C=N/NC(=S)Nc1cccc2cc3ccccc3nc12`: above 200 µM and 0.575 µM.
For the compound `O=C(Nc1ccc(Cl)cc1)c1cc(S(=O)(=O)N2CCNNC2=O)c(S)cc1Cl`, the EC50 was 9.77 µM and the IC50 turned out to be 129 µM.
As for `COC(=O)C(CSSCC(NC(=O)CNC(=O)c1ccccc1)C(=O)OC)NC(=O)CNC(=O)c1ccccc1` (stereo not drawn) (I: Bz-Gly-Cys-OMe / II: Bz-Gly-Cys-OMe; disulfide I:2-II:2; configuration not given here), the EC50 is above 117 µM and the IC50 was found to be 38.9 µM.
The matching figures for `CCN(CC)CCN=Cc1c(O)c(O)c(C(C)C)c2cc(C)c(-c3c(C)cc4c(C(C)C)c(O)c(O)c(C=NCCN(CC)CC)c4c3O)c(O)c12`: above 200 µM and 1.02 µM.
In the case of `Cc1ccc(S(=O)(=O)N2CCNCCN(S(=O)(=O)c3ccc(C)cc3)CCN(S(=O)(=O)c3ccc(C)cc3)CC2)cc1`, the EC50 was above 200 µM and the IC50 was above 200 µM.
With `CC(=O)NC(CCCN(Cc1ccccc1)C(=O)NCCCl)C(=O)NCc1ccccc1` (stereo unspecified), the EC50 was above 389 µM and the IC50 was 347 µM.
For the compound `CC1CC2C(=O)N(c3ccccc3)C(=O)C2c2c1c1ccccc1n2Cc1ccccc1` (stereo unspecified), the outcome was inactive.
With `COC(=O)C(=O)C(C(=O)OC)C(=O)C(=O)Nc1ccccc1C(N)=O` (stereo unspecified), the EC50 was above 74.1 µM and the IC50 was above 74.1 µM.
For the compound `COc1cc2c(c(OC)c1OC)-c1ccc(OC)c(=O)cc1C([N+](C)(C)C)CC2` (stereo unspecified), the EC50 is above 200 µM and the IC50 was determined as 11 µM.
In the same order, the values of `O=C(NO)C(=O)Nc1ccc(Cl)cc1[N+](=O)[O-]` are above 100 µM and above 100 µM.
The matching figures for `CC(C)[Si](Oc1cc2c3c(ccc2c(O)c1[C@@H](C)CO[Si](C)(C)C(C)(C)C)C(C)(C)CCC3)(C(C)C)C(C)C`: above 200 µM and 40.7 µM.
In the same order, the values of `COC(=O)C(=O)C(C(=O)Nc1cccc(C)c1C)C1Sc2ccccc2NC1=O` (stereo unspecified) are above 17.4 µM and 16.6 µM.
In the case of `Clc1cccc(-c2ccc[nH]2)c1`, the EC50 is above 200 µM and the IC50 was above 200 µM.
`Oc1ccc(Cl)cc1C(c1cc(Cl)ccc1O)C(Cl)(Cl)Cl`: the EC50 was 9.77 µM and the IC50 was 16.6 µM.
For the compound `CC[N+](C)(CC)Cc1ccccc1[N+](=O)[O-]`, the EC50 is above 200 µM and the concentration for half-maximal inhibition (IC50) stood at 126 µM.
Take `Nc1ccc(C(=O)N2CCC[C@H]2CO)c(N)c1`: the EC50 was above 200 µM and the IC50 was above 200 µM.
As to `COC(=O)CC1(CNC(=O)OCc2ccccc2)OCCO1`, the EC50 is above 200 µM and the IC50 is above 200 µM.
As to `COC(=O)c1cc2c(o1)Sc1ccccc1NC2=O`, the EC50 is above 200 µM and the 50% inhibitory concentration (IC50) was above 200 µM.
`CC1(C)S[C@@H]2[C@H](NC(=O)C3(N)CCCC3)C(=O)N2[C@H]1C(=O)O`: the EC50 was above 200 µM and the IC50 was above 200 µM.
`c1ccc(CCC2=Nc3ccccc3CO2)cc1`: the EC50 is above 110 µM and the IC50 was above 110 µM.
Consider `O=C1NCC2(CCNCC2)N1`, for which the EC50 was above 200 µM and the IC50 was above 200 µM.
`CC(C)(c1ccc(OP2(=O)OCC3(CC=CCC3)CO2)cc1)c1ccc(OP2(=O)OCC3(CC=CCC3)CO2)cc1` (stereo unspecified): the EC50 is above 200 µM and the IC50 turned out to be 22.9 µM.
`COC(=O)C1C=CCON2CCc3c(n(C)c4ccccc34)C12` (stereo unspecified): the EC50 was above 22.9 µM and the IC50 was above 22.9 µM.
On to `CC1(C)C2=CCCC(=O)[C@@]2(C)CC[C@@H]1O`, for which the result was inactive.
As to `Clc1ccc2nc3c(c(-c4ccccc4)nn3-c3ccccc3)c(-c3ccccc3)c2c1`, the EC50 is above 100 µM and the IC50 is above 100 µM.
For the compound `CC1=C/C(=C(\c2ccc(N(C)C)cc2)c2ccc([N+](C)(C)C)cc2)C=CC1=[N+](C)C`, the result was inactive.
Take `O=c1c(-c2ccc(O)cc2)coc2c(O)c(O)ccc12`: the EC50 was above 200 µM and the concentration for half-maximal inhibition (IC50) is 28.8 µM.
As for `Cc1oc2nc(N(C)C)nc(Cl)c2c1C`, the result was inactive.
Turning to `CC(=O)[O-].[Ni].c1ccc(/C(=N\Nc2ccccn2)c2ccccn2)cc1`, the outcome was inactive.
Turning to `c1ccc2[nH]c(C3CCCCO3)nc2c1` (stereo unspecified), the EC50 was above 200 µM and the IC50 was above 200 µM.
`O=C(O)c1cccc(/C=C/c2ccc(N=Nc3c(O)cc(O)cc3C(=O)O)cc2C(=O)O)c1`: the EC50 is above 200 µM and the IC50 came out at 158 µM.
In the same order, the values of `CCOC(=O)/C=C/CCCC(N1CCCC1)n1nnc2ccccc21` (stereo unspecified) are above 200 µM and 3.31 µM.
As to `COc1ccc(-n2cnc3c2NC(C)(C)N=C3C(N)=O)c(OC)c1`, the EC50 is above 200 µM and the IC50 was above 200 µM.
Consider `O=C(n1c(=O)n(-c2ccc(Cl)cc2)c(=O)n1C(=O)C(Cl)(Cl)Cl)C(Cl)(Cl)Cl`, for which the EC50 was above 200 µM and the IC50 is above 200 µM.
Turning to `O=C(/N=C/c1c(O)c2ccccc2oc1=O)NC1CCCCC1`, the EC50 is above 41.7 µM and the IC50 is above 41.7 µM.
With `O=C1C(Cl)=C(c2ccc([N+](=O)[O-])cc2)C(=O)c2c(O)cccc21`, the EC50 is above 79.4 µM and the IC50 turned out to be 1.12 µM.
In the case of `OCC(O)CSSCC(O)C(O)CSSCC(O)CO` (stereo unspecified), the result was inactive.
Regarding `CCCCCCCCCCCCCC(=O)NCC(=O)NC(CO)C(=O)NC(CO)C(=O)NC(CCCCN)C(=O)NC(CO)C(=O)NC(CCCCN)C(=O)N1CCCC1C(=O)NC(CCCCN)C(=O)NC(CC(=O)O)C(N)=O` (stereo unspecified) (Myristoyl-GSSKSKPKD-NH2; configuration not given here), the EC50 is above 219 µM and the IC50 was above 219 µM.
Regarding `COC(=O)/C(C#N)=C/c1ccco1`, the EC50 was above 200 µM and the IC50 is above 200 µM.
As for `CNC(=O)O/N=C(/C)c1cccc([N+](=O)[O-])c1`, the EC50 was above 200 µM and the IC50 was above 200 µM.
Take `S=C(Nc1ccc2cn[nH]c2c1)Nc1ccc2cn[nH]c2c1`: the EC50 is above 309 µM and the IC50 was determined as 129 µM.
